# Measurements reported in US10981926B2 (Janssen Pharmaceutica NV, priority 2016, dated 2021).
# How the values were obtained:
# [1] = target: wild-type Androgen Receptor (AR-wt) (Homo sapiens (Human), UniProt P10275); experiment: LNCaP-AR-wt AG reporter assay (agonist mode); format: cell-based
# AR-VP16 = AR-VP16 (Homo sapiens, UniProt P10275); experiment: AR-VP16 DNA Binding Assay (VP16 WT); format: cell-based; conditions: HepG2, antagonist mode, 90 pM R1881, 48 hours
# Method: HepG2 cells were maintained in EMEM supplemented with 10% FBS. One day before transfection, the media was changed to EMEM with 10% CSS. T-150 flasks were transiently transfected using 120 μL Lipofectamine 2000 (Life Technologies), 24.5 μg AR-VP16 or F876L-VP16 (expression vector) and 49 μg 4×ARE-Luciferase (reporter vector) in OptiMEM and the flasks were incubated overnight. Cells were then trypsinized, counted and resuspended at 500,000 cells/mL. For agonist mode, the compounds were serially diluted and 50 μL of the compound was added per well. 50 μL of the cells were added to each well and incubated for 48 hours. For antagonist mode, a final concentration of 90 pM (VP16 AR) or 1 nM (VP16 F876L) R1881 was added to the plate and incubated for 48 hours. The plates were then assayed using SteadyGlo and read on the Envision. Percent Stimulation and Inhibition were determined and analyzed using GraphPad Prism.
# wild-type Androgen Receptor (AR-wt), sequence (P10275 whole entry): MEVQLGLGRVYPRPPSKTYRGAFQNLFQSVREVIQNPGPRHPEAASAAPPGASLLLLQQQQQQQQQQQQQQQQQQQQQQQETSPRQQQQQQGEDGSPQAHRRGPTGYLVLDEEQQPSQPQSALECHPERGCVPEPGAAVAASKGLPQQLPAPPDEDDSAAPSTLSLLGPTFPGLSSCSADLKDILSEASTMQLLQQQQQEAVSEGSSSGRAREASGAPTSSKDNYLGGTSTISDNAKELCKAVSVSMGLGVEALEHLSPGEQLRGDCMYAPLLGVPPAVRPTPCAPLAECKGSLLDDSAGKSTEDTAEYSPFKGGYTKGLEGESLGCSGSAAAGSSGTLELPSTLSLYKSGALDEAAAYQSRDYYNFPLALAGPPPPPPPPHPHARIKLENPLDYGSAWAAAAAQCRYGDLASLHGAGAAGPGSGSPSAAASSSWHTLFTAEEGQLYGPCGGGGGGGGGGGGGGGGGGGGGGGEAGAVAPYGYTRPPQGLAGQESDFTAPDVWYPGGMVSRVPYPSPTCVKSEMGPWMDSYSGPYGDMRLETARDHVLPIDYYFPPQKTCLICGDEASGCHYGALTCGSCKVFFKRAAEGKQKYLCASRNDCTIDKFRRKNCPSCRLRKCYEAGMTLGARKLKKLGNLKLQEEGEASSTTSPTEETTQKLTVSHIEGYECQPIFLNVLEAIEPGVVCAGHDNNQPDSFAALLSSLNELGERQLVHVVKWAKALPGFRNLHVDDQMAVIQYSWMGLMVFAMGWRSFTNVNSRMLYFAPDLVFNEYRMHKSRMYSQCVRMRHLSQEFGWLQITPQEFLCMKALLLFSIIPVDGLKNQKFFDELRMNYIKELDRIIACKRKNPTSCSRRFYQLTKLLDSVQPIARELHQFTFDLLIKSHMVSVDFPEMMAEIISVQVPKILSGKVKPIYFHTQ
# AR-VP16, sequence (P10275 whole entry, looked up): as the sequence (P10275 whole entry) above
structure (smiles),measurement,setting,value
"N#Cc1ncc(N2C(=O)C3(CCC3)N(c3ccc(OC4CCNCC4)nc3)C2=S)cc1C(F)(F)F [Cpd 43, 5-[5-oxo-8-[6-(4-piperidyloxy)-3-pyridyl]-7-thioxo-6,8-diazaspiro[3.4]octan-6-yl]-3-(trifluoromethyl)pyridine-2-carbonitrile]",EC50,"[1]; agonist mode, pEC50 = −Log10(EC50 in Molar), read-out: LNCaP-AR-wt AG pEC50 (converted)",> 15.1 µM
same,LNCaP-AR-wt AG MAX % Stim,[1]; maximum % stimulation (agonist response) over the tested concentration range,−0.1%
same,IC50,AR-VP16,7.75 µM
